Laboratory results reported in US12239643B2, “Therapeutic agent for inflammatory diseases, autoimmune diseases, fibrotic diseases, and cancer diseases” (MEIJI SEIKA PHARMA CO., LTD., priority 2018, dated 2025).

What follows are compounds tested on PDE4 (assay: Evaluation of PDE4 inhibitory activity, scintillation proximity assay). Settings: scintillation proximity assay; class symbols of Evaluation 1; read-out: PDE4 Inhibitory Activity (concentration for the inhibition rate of 50%, IC50), Evaluation 1.
Assay type: biochemical
Summary of the method: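 SPA with [2,8-3H]-cAMP and diluted PDE4 enzyme preparation in 50 mM Tris-HCl pH 7.4, 8.3 mM MgCl2, 1.7 mM EGTA, 3 mg/mL BSA, 120 min at room temperature. Product captured on ZnSO4-containing YSi-SPA beads, scintillation counted; IC50 from inhibition curves vs DMSO control and no-enzyme blank.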

N#CCOc1ccc(-c2nccs2)c2oc(N3CC4CCC(C3)N4)nc12 [Example 82, 2-((2-(3,8-Diazabicyclo[3.2.1]octan-3-yl)-7-(thiazol-2-yl)benzo[d]oxazol-4-yl)oxy)acetonitrile] and Oc1ccc(-c2nccs2)c2oc(N3CC4CCC(C3)N4)nc12 [Example 78, 2-(3,8-Diazabicyclo[3.2.1]octan-3-yl)-7-(thiazol-2-yl)benzo[d]oxazol-4-ol] cannot be ordered by IC50: less than 100 nM for the first, less than 100 nM for the second.

CCOC(=O)c1ccc(-c2nccs2)c2oc(N3CC4CCC(C3)N4)nc12 [Example 112, Ethyl 2-(3,8-diazabicyclo[3.2.1]octan-3-yl)-7-(thiazol-2-yl)benzo[d]oxazole-4-carboxylate] and FC(F)(F)c1ccc(-c2nccs2)c2oc(N3CC4CCC(C3)N4)nc12 [Example 31, 2-(3,8-Diazabicyclo[3.2.1]octan-3-yl)-7-(thiazol-2-yl)-4-(trifluoromethyl)benzo[d]oxazole] cannot be ordered by IC50: less than 100 nM for the first, less than 100 nM for the second.

c1csc(-c2ccc(OC3CCOC3)c3nc(N4CC5CCC(C4)N5)oc23)n1 (stereo not drawn) [Example 84, 2-(3,8-Diazabicyclo[3.2.1]octan-3-yl)-4-((tetrahydrofuran-3-yl)oxy)-7-(thiazol-2-yl)benzo[d]oxazole] and Oc1ccc(-c2nccs2)c2oc(N3CC4CCCC(C3)N4)nc12 [Example 80, 2-(3,9-Diazabicyclo[3.3.1]nonan-3-yl)-7-(thiazol-2-yl)benzo[d]oxazol-4-ol] cannot be ordered by IC50: less than 100 nM for the first, less than 100 nM for the second.

COC(C)c1cc(-c2nccs2)c2oc(N3CC4CCC(C3)N4)nc2c1 (stereo not drawn) [Example 110, 2-(3,8-Diazabicyclo[3.2.1]octan-3-yl)-5-(1-methoxyethyl)-7-(thiazol-2-yl)benzo[d]oxazole] and CSc1cc(-c2nccs2)c2oc(N3CC4CCC(C3)N4)nc2c1 [Example 39, 2-(3,8-Diazabicyclo[3.2.1]octan-3-yl)-5-(methylthio)-7-(thiazol-2-yl)benzo[d]oxazole] cannot be ordered by IC50: less than 100 nM for the first, less than 100 nM for the second.

Compared with CCOC(=O)c1cc(-n2cccn2)c2oc(N3CC4CC(C3)N4)nc2c1 [Example 91, Ethyl 2-(3,6-diazabicyclo[3.1.1]heptan-3-yl)-7-(1H-pyrazol-1-yl)benzo[d]oxazole-5-carboxylate], COC(C)(C)c1cc(-c2nccs2)c2oc(N3CC4CC(C3)N4)nc2c1 [Example 174, 2-(3,6-Diazabicyclo[3.1.1]heptan-3-yl)-5-(2-methoxypropan-2-yl)-7-(thiazol-2-yl)benzo[d]oxazole] is lower in IC50: greater than 1000 nM for the first, less than 100 nM for the second. The second is the more potent here.

First: OC(O)(c1cc(-c2nccs2)c2oc(N3CC4CC(C3)N4)nc2c1)C(F)(F)F [Example 158, 1-(2-(3,6-Diazabicyclo[3.1.1]heptan-3-yl)-7-(thiazol-2-yl)benzo[d]oxazol-5-yl)-2,2,2-trifluoroethane-1,1-diol]
Second: COC(C)(c1cc(-c2nccs2)c2oc(N3CC4CC(C3)N4)nc2c1)C(F)(F)F (stereo not drawn) [Example 103, 2-(3,6-Diazabicyclo[3.1.1]heptan-3-yl)-7-(thiazol-2-yl)-5-(1,1,1-trifluoro-2-methoxypropan-2-yl)benzo[d]oxazole]
The IC50 of the first is higher: 100 to 1000 nM for the first, less than 100 nM for the second. The second is the more potent here.

CN(C)C(=O)c1cc(-c2nccs2)c2oc(N3CC4CCC(C3)N4)nc2c1 [Example 94, 2-(3,8-Diazabicyclo[3.2.1]octan-3-yl)-N,N-dimethyl-7-(thiazol-2-yl)benzo[d]oxazole-5-carboxamide] and c1csc(-c2cc(CN3CCOCC3)cc3nc(N4CC5CCC(C4)N5)oc23)n1 [Example 168, 2-(3,8-Diazabicyclo[3.2.1]octan-3-yl)-5-(morpholinomethyl)-7-(thiazol-2-yl)benzo[d]oxazole] cannot be ordered by IC50: less than 100 nM for the first, less than 100 nM for the second.

N#CCOC(c1cc(-c2nccs2)c2oc(N3CC4CCC(C3)N4)nc2c1)C(F)(F)F (stereo not drawn) [Example 153, 2-(1-(2-(3,8-Diazabicyclo[3.2.1]octan-3-yl)-7-(thiazol-2-yl)benzo[d]oxazol-5-yl)-2,2,2-trifluoroethoxy)acetonitrile] and COCCOC(c1cc(-c2nccs2)c2oc(N3CC4CC(C3)N4)nc2c1)C(F)(F)F (stereo not drawn) [Example 154, 2-(3,6-Diazabicyclo[3.1.1]heptan-3-yl)-7-(thiazol-2-yl)-5-(2,2,2-trifluoro-1-(2-methoxyethoxy)ethyl)benzo[d]oxazole] cannot be ordered by IC50: less than 100 nM for the first, less than 100 nM for the second.

OCc1cc(-c2nccs2)c2oc(N3CC4CCC(C3)N4)nc2c1C(F)(F)F [Example 170, (2-(3,8-Diazabicyclo[3.2.1]octan-3-yl)-7-(thiazol-2-yl)-4-(trifluoromethyl)benzo[d]oxazol-5-yl)methanol] and Oc1ccc(-c2nccs2)c2oc(N3CC4CC(C3)N4)nc12 [Example 79, 2-(3,6-Diazabicyclo[3.1.1]heptan-3-yl)-7-(thiazol-2-yl)benzo[d]oxazol-4-ol] cannot be ordered by IC50: less than 100 nM for the first, less than 100 nM for the second.

Same assay, conditions: scintillation proximity assay; read-out: PDE4 Inhibitory Activity (Evaluation 1; concentration for the inhibition rate of 50%)

N#CCOC(c1ccc(-c2nccs2)c2oc(N3CC4CCC(C3)N4)nc12)C(F)(F)F (stereo not drawn) [Example 228, 2-(1-(2-(3,8-Diazabicyclo[3.2.1]octan-3-yl)-7-(thiazol-2-yl)benzo[d]oxazol-4-yl)-2,2,2-trifluoroethoxy)acetonitrile] and COC(c1ccc(-c2nccs2)c2oc(N3CC4CCC(C3)N4)nc12)C(F)(F)F (stereo not drawn) [Example 222, 2-(3,8-Diazabicyclo[3.2.1]octan-3-yl)-7-(thiazol-2-yl)-4-(2,2,2-trifluoro-1-methoxyethyl)benzo[d]oxazole] cannot be ordered by IC50: less than 100 nM for the first, less than 100 nM for the second.

CC(C)(O)CC(F)(F)Oc1ccc(-c2nccs2)c2oc(N3CC4CC(C3)N4)nc12 [Example 295, 4-((2-(3,6-Diazabicyclo[3.1.1]heptan-3-yl)-7-(thiazol-2-yl)benzo[d]oxazol-4-yl)oxy)-4,4-difluoro-2-methylbutan-2-ol] and CC(C)(O)C1CC(Oc2ccc(-c3nccs3)c3oc(N4CC5CC(C4)N5)nc23)C1 (stereo not drawn) [Example 267, 2-(3-((2-(3,6-Diazabicyclo[3.1.1]heptan-3-yl)-7-(thiazol-2-yl)benzo[d]oxazol-4-yl)oxy)cyclobutyl)propan-2-ol] cannot be ordered by IC50: less than 100 nM for the first, less than 100 nM for the second.

CC(C)(O)C(C)(C)OC(c1ccc(-c2nccs2)c2oc(N3CC4CC(C3)N4)nc12)C(F)(F)F (stereo not drawn) [Example 280, 3-(1-(2-(3,6-Diazabicyclo[3.1.1]heptan-3-yl)-7-(thiazol-2-yl)benzo[d]oxazol-4-yl)-2,2,2-trifluoroethoxy)-2,3-dimethylbutan-2-ol] and COC(C)(C)COC(c1ccc(-c2nccs2)c2oc(N3CC4CC(C3)N4)nc12)C(F)(F)F (stereo not drawn) [Example 281, 2-(3,6-Diazabicyclo[3.1.1]heptan-3-yl)-7-(thiazol-2-yl)-4-(2,2,2-trifluoro-1-(2-methoxy-2-methylpropoxy)ethyl)benzo[d]oxazole] cannot be ordered by IC50: less than 100 nM for the first, less than 100 nM for the second.

NS(=O)(=O)c1ccc(-c2nccs2)c2oc(N3CC4CC(C3)N4)nc12 [Example 396, 2-(3,6-Diazabicyclo[3.1.1]heptan-3-yl)-7-(thiazol-2-yl)benzo[d]oxazole-4-sulfonamide] and CC(=O)c1ccc(-c2nccs2)c2oc(N3CC4CC(C3)N4)nc12 [Example 244, 1-(2-(3,6-Diazabicyclo[3.1.1]heptan-3-yl)-7-(thiazol-2-yl)benzo[d]oxazol-4-yl)ethan-1-one] cannot be ordered by IC50: less than 100 nM for the first, less than 100 nM for the second.

CC(O)c1ccc(-c2nccs2)c2oc(N3CC4CC(C3)N4)nc12 (stereo not drawn) [Example 240, 1-(2-(3,6-Diazabicyclo[3.1.1]heptan-3-yl)-7-(thiazol-2-yl)benzo[d]oxazol-4-yl)ethan-1-ol] and c1csc(-c2ccc(C3CC3)c3nc(N4CC5CC(C4)N5)oc23)n1 [Example 344, 2-(3,6-Diazabicyclo[3.1.1]heptan-3-yl)-4-cyclopropyl-7-(thiazol-2-yl)benzo[d]oxazole] cannot be ordered by IC50: less than 100 nM for the first, less than 100 nM for the second.

First: CC(O)c1cc(-c2nccs2)c2oc(N3CC4CCC(C3)N4O)nc2c1C(F)(F)F (stereo not drawn) [Example 384, 3-(5-(1-Hydroxyethyl)-7-(thiazol-2-yl)-4-(trifluoromethyl)benzo[d]oxazol-2-yl)-3,8-diazabicyclo[3.2.1]octan-8-ol]
Second: O=C(O)c1cc(-c2nccs2)c2oc(N3CC4CCC(C3)N4)nc2c1OC(F)(F)F [Example 189, 2-(3,8-Diazabicyclo[3.2.1]octan-3-yl)-7-(thiazol-2-yl)-4-(trifluoromethoxy)benzo[d]oxazole-5-carboxylic acid]
The IC50 of the first is higher: greater than 1000 nM for the first, 100 to 1000 nM for the second. The second is the more potent here.

First: O=C(O)c1cc(-c2nccs2)c2oc(N3CC4CC(C3)N4)nc2c1OC(F)(F)F [Example 190, 2-(3,6-Diazabicyclo[3.1.1]heptan-3-yl)-7-(thiazol-2-yl)-4-(trifluoromethoxy)benzo[d]oxazole-5-carboxylic acid]
Second: CCOC(=O)c1cc(-c2nccs2)c2oc(N3CC4CC(C3)N4)nc2c1OC(F)(F)F [Example 187, Ethyl 2-(3,6-diazabicyclo[3.1.1]heptan-3-yl)-7-(thiazol-2-yl)-4-(trifluoromethoxy)benzo[d]oxazole-5-carboxylate]
The IC50 of the first is higher: greater than 1000 nM for the first, less than 100 nM for the second.

OC(O)(c1ccc(-c2nccs2)c2oc(N3CC4CCC(C3)N4)nc12)C(F)(F)F [Example 233, 1-(2-(3,8-Diazabicyclo[3.2.1]octan-3-yl)-7-(thiazol-2-yl)benzo[d]oxazol-4-yl)-2,2,2-trifluoroethane-1,1-diol] and OCc1cc(-c2nccs2)c2oc(N3CC4CCC(C3)N4)nc2c1OC(F)(F)F [Example 201, (2-(3,8-Diazabicyclo[3.2.1]octan-3-yl)-7-(thiazol-2-yl)-4-(trifluoromethoxy)benzo[d]oxazol-5-yl)methanol] cannot be ordered by IC50: less than 100 nM for the first, less than 100 nM for the second.

CC(O)C(F)(F)Oc1ccc(-c2cscn2)c2oc(N3CC4CCC(C3)N4)nc12 (stereo not drawn) [Example 310, 1-((2-(3,8-Diazabicyclo[3.2.1]octan-3-yl)-7-(thiazol-4-yl)benzo[d]oxazol-4-yl)oxy)-1,1-difluoropropan-2-ol] and OCC(F)(F)Oc1ccc(-n2cccn2)c2oc(N3CC4CC(C3)N4)nc12 [Example 320, 2-((2-(3,6-Diazabicyclo[3.1.1]heptan-3-yl)-7-(1H-pyrazol-1-yl)benzo[d]oxazol-4-yl)oxy)-2,2-difluoroethan-1-ol] cannot be ordered by IC50: less than 100 nM for the first, less than 100 nM for the second.
